Data from patent US10588888B2, “CNS-accessible pharmacological chaperones for treatment of acid β-glucosidase-related disease states” (Children's Hospital Medical Center, priority 2017, dated 2020).
Substitutions are numbered along the chain they refer to. Where two headings read alike, the source gives them in different places.

Legend:
WT GCase [1] = molecular target: T1, WT GCase (Mus musculus, UniProt P17439); experiment: Immunoblot of GCase protein in WT fibroblasts; assay type: cell-based; settings: 10 μM, 5 days, vs untreated cells
T1 construct: Fibroblast cells from wild type (WT) and GCase mutant mice; endogenous in cells; host or cells: wild-type mouse fibroblasts
T1 sequence (P17439 20-515): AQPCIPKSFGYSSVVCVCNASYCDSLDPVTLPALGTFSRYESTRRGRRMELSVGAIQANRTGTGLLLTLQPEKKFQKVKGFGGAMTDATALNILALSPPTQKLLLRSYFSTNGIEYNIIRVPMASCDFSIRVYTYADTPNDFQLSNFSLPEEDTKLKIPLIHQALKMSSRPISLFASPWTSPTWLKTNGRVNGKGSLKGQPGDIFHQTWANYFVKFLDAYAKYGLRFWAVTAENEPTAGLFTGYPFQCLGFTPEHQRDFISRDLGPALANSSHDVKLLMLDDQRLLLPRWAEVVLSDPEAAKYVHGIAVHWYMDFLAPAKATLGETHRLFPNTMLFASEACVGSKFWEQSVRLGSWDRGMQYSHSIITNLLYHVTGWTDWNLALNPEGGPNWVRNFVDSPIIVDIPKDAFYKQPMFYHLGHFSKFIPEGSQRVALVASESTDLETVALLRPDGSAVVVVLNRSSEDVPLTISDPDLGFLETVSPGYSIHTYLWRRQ
Description: (§1) Fibroblast cells from wild type (WT) and GCase mutant mice, homozygous V394L/V394L (4L/4L) and 4L/4L/with saposin C−/− (4L;C*) were cultured in 10% Bovine Calf Serum/Dulbecco's Modified Eagle's medium (DMEM). The compounds were dissolved in Dimethyl sulfoxide (DMSO) at 5 mM as a stock solution and stored at −20° C. For cell treatment, the stock was diluted with DMEM and added to cells. The cells were incubated with the compounds for 5 days and changed with fresh media with the compound every two days.
(§2) Cell pellets were collected and washed with Phosphate-buffered saline twice. The pellets were suspended in M-per lysis buffer. Freeze and thaw twice to break down the cell membrane. Protein concentration was determined by the bicinchoninic acid assay. The proteins were resolved on 4-12% NuPAGE gel (Invitrogen) and were transferred to PVDF membrane using iBlot 2 gel transfer device (Life Technologies) following manufactural instruction. The blotted membranes were incubated with Goat anti-mouse GCase (1:1000) in 1.5% BSA/1.5% milk/PBS buffer overnight at 4° C. followed by IRdye Donkey anti-Goat 1:5000. The signals were detected using LI-COR detection system according to manufacturer's instruction.

WT GCase [2] = molecular target: T1, WT GCase; experiment: GCase activity in WT fibroblasts treated with compounds; assay type: cell-based; settings: 5 days, 10 μM, vs untreated cells
Description: as §1
(§3) Cell pellets were collected and washed with Phosphate-buffered saline twice. The cell pellets were homogenized in 1% Na-taurocholate/1% Triton X-100 (Tc/Tx). GCase activity was determined fluorometrically with 4MU-Glc as substrate in 0.25% Tc/Tx diluted in 0.1M citrate phosphate (CP) buffer (pH 5.6) as described. Protein concentrations of cells and tissues were determined by BCA assay using BSA as standard.

GCase (WT fibroblasts) = molecular target: T2, GCase (WT fibroblasts) (Mus musculus, UniProt P17439); experiment: Immunofluorescence co-localization of GCase and Lamp1 in WT fibroblasts; assay type: cell-based; settings: vs untreated cells
T2 construct: Fibroblast cells from wild type (WT) and GCase mutant mice; endogenous in cells; host or cells: wild-type mouse fibroblasts
T2 sequence (P17439 20-515): T1 sequence (P17439 20-515)
Description: (§4) FIG. 5. Increased GCase protein in lysosomes of mouse fibroblasts treated with M chaperone compounds. (A) GCase (green) was co-stained with lysosomal marker, Lamp1 (red). Co-localization of GCase and Lamp1 (orange) indicates lysosomal localization of GCase.
as §1
(§5) The cells grown on the chamber slides were fixed in 4% paraformaldehyde for 30 mins, followed by washing twice in Phosphate-buffered saline. The cells were permeablized with 0.3% Triton X-100 in Phosphate-buffered saline and washed with Phosphate-buffered saline for three times. After blocking for 30 min in 1.5% BSA/0.5% gelatin diluted in Phosphate-buffered saline, primary antibody, mouse anti-Lamp1 (1:200) and goat anti-mGCase (1:200) were applied to the cells and incubated overnight at 4° C. The signals were detected using Donkey anti-goat-FITC (1:500) and goat anti-mouse-Texas Red (1:500) to the cognate primary antibody. The stained cells were mounted with antifade containing DAPI.

[3] = molecular target: T3, GCase (4L/4L and 4L;C* fibroblasts) (Mus musculus, UniProt P17439, V412L); experiment: Immunofluorescence co-localization of GCase and Lamp1 in mutant fibroblasts; assay type: cell-based; settings: vs untreated cells
T3 construct: Fibroblast cells from wild type (WT) and GCase mutant mice; endogenous in cells; host or cells: mouse fibroblasts from V394L/V394L (4L/4L) and 4L/4L; saposin C-/- (4L;C*) mice
T3 sequence (P17439 20-515 V412L): T1 sequence (P17439 20-515) with V393L
Description: as §4, §1, §5

Mutant GCase (V394L) = molecular target: T4, Mutant GCase (V394L) (Mus musculus, UniProt P17439, V412L); experiment: GCase activity in mutant GCase fibroblasts treated with compounds; assay type: cell-based; settings: for GCase activity (in words): 4L/4L and 4L;C* fibroblasts, 10 μM, vs untreated cells
T4 construct: Fibroblast cells from wild type (WT) and GCase mutant mice; endogenous in cells; host or cells: mouse fibroblasts from V394L/V394L (4L/4L) and 4L/4L; saposin C-/- (4L;C*) mice
T4 sequence (P17439 20-515 V412L): T1 sequence (P17439 20-515) with V393L
Description: (§6) FIG. 1. Screen of small molecules with NCGC607 as a positive control. Mutant GCase (V394L) fibroblasts were incubated with small molecules for 5 days at various concentration.
as §1, §3

[4] = molecular target: T5, mutant V394L GCase protein (Mus musculus, UniProt P17439, V412L); experiment: Immunoblot of GCase protein in mutant fibroblasts; assay type: cell-based; settings: 4L/4L and 4L;C* fibroblasts, 10 μM, 5 days, vs untreated cells
T5 construct: Fibroblast cells from wild type (WT) and GCase mutant mice; endogenous in cells; host or cells: mouse fibroblasts from V394L/V394L (4L/4L) and 4L/4L; saposin C-/- (4L;C*) mice
T5 sequence (P17439 20-515 V412L): T1 sequence (P17439 20-515) with V393L
Description: as §1, §2

MDR1 = experiment: MDR1-MDCK assay, blood-brain-barrier penetration potential; assay type: in vitro ADME; settings: dog, 5 μM, 120 minutes
Description: (§7) MDR1-MDCK cell monolayers were grown to confluence on collagen-coated, microporous membranes in 12-well assay plates. The permeability assay buffer was Hanks' balanced salt solution containing 10 mM HEPES and 15 mM glucose at a pH of 7.4. The buffer in the receiver chamber also contained 1% bovine serum albumin. The dosing solution concentration was 5 μM of test article in the assay buffer. Cell monolayers were dosed on the apical side (A-to-B) or basolateral side (B-toA) and incubated at 37° C. with 5% CO2 in a humidified incubator. Samples were taken from the donor and receiver chambers at 120 minutes. Each determination was performed in duplicate. The flux of lucifer yellow was also measured post-experimentally for each monolayer to ensure no damage was inflicted to the cell monolayers during the flux period. All samples were assayed by LC-MS/MS using electrospray ionization.
(§8) The apparent permeability (Papp) and percent recovery were calculated as follows: Papp=(dCr/dt)×Vr/(A×CA) Percent Recovery=100×((Vr×Cr^final)+(Vd×Cd^final))/(Vd×CN)
(§9) Where, dCr/dt is the slope of the cumulative concentration in the receiver compartment versus time in μM s^−1; Vr is the volume of the receiver compartment in cm^3; Vd is the volume of the donor compartment in cm^3; A is the area of the insert (1.13 cm^2 for 12-well); CA is the average of the nominal dosing concentration and the measured 120 minute donor concentration in μM; CN is the nominal concentration of the dosing solution in μM; Cr final is the cumulative receiver concentration in M at the end of the incubation period; Cd final is the concentration of the donor in M at the end of the incubation period.
(§10) Efflux ratio (ER) is defined as Papp (B-to-A)/Papp (A-to-B).

[5] = tested on: MDR1-MDCK cell monolayers; experiment: as above; assay type: in vitro ADME; settings: MDR1-MDCK
Description: as §7, §8, §9, §10

MDR1 (P-gp) = experiment: as above; assay type: in vitro ADME; settings: dog; for Papp A→B at 120 min, 5 μM: MDCK-MDR1, pH 7.4, A to B; for Papp B→A at 120 min, 5 μM: MDCK-MDR1, pH 7.4, B to A
Description: as §7, §8, §9, §10

[6] = tested on: Mutant GCase (V394L) fibroblasts; experiment: Toxicity in small molecule screen on mutant GCase fibroblasts; assay type: cell-based, mouse; settings: 5 days, various concentration
Description: as §6, §1

Recombinant GCase = molecular target: T6, Recombinant GCase (Homo sapiens, UniProt P04062); experiment: Recombinant GCase activity with or without compound; assay type: biochemical; settings: for Inhibition of GCase (in words): recombinant GCase
T6 sequence (P04062 40-536): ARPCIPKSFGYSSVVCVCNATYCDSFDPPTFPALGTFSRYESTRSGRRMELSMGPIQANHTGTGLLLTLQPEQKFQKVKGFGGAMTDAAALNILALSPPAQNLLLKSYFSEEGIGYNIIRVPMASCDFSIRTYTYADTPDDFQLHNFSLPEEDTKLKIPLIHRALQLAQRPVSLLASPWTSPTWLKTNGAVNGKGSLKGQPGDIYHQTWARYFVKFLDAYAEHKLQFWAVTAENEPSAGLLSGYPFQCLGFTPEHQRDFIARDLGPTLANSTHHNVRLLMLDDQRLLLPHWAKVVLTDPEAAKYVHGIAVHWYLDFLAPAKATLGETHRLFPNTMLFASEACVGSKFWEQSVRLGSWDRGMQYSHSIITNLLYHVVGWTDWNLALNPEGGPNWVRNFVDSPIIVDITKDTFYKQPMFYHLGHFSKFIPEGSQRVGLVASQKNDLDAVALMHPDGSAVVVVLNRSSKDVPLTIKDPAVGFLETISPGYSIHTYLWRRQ
Description: FIG. 2. […] Recombinant GCase was incubated with or without compound 216 at various concentration and GCase activity was determined.

[7] = average, 5 μM, read-out: Papp AVE
[8] = replicate 1, 5 μM, read-out: Papp R1
[9] = replicate 2, 5 μM, read-out: Papp R2

Row | GCase protein levels (in words) (WT GCase [1]) | GCase activity (in words) (WT GCase [2]) | Lysosomal localization of GCase protein (Pearson index, in words) (GCase (WT fibroblasts)) | Lysosomal localization of GCase protein (Pearson index, in words) [3] | GCase activity (in words) (Mutant GCase (V394L); 5 days) | GCase protein levels (in words) [4] | SMILES | other results
1 | increased | Increased | enhanced | enhanced | Increased | increased | O=C(COc1ccccc1C(=O)NCC1CCCO1)Nc1ccc(Br)cc1 (stereo in doubt) [Compound 6, 2-((4-bromophenylcarbamoyl)methoxy)-N(((R)tetrahydrofuran-2-yl)methyl)benzamide] | 
2 | increased | Increased | enhanced | enhanced | Increased | increased | O=C(COc1ccccc1C(=O)NC[C@@H]1CCCO1)Nc1ccc(Br)cc1 [Compound 8, 2-((4-bromophenylcarbamoyl)methyoxy)-N—(((S)-tetrahydrofuran-2-yl)methyl)benzamide] | recovery at 120 min, 5 μM (MDR1; MDCK-MDR1, pH 7.4, A to B): 77%; recovery at 120 min, 5 μM (MDR1; MDCK-MDR1, pH 7.4, B to A): 86%; Brain Penetration Classification [5]: High; Brain Penetration Classification ([5]; listed as #8): high; Papp A→B at 120 min, 5 μM (MDR1 (P-gp); [7]): 32.1 ×10⁻⁶ cm/s; Papp A→B at 120 min, 5 μM (MDR1 (P-gp); [8]): 33.4 ×10⁻⁶ cm/s; Papp A→B at 120 min, 5 μM (MDR1 (P-gp); [9]): 30.8 ×10⁻⁶ cm/s; Papp B→A at 120 min, 5 μM (MDR1 (P-gp); [7]): 34.4 ×10⁻⁶ cm/s; Papp B→A at 120 min, 5 μM (MDR1 (P-gp); [8]): 31.8 ×10⁻⁶ cm/s; Papp B→A at 120 min, 5 μM (MDR1 (P-gp); [9]): 37 ×10⁻⁶ cm/s; efflux ratio at 120 min, 5 μM (MDR1 (P-gp); MDCK-MDR1, pH 7.4, Papp (B-to-A)/Papp (A-to-B), P-gp): 1.1; Activity in the mutant GCase fibroblasts assay (comparison of stereoisomers) (Mutant GCase (V394L); mutant GCase fibroblasts): better activity than Compound 6
3 | increased | Increased | enhanced | enhanced | Increased | increased | O=C(COc1ccccc1C(=O)NCC1CCCO1)Nc1ccc(Br)cc1 (centres unmarked) [Compound 216] | Toxicity compared to 607 [6]: reduced toxicity; Activation function on GCase compared to NCGC607 (Mutant GCase (V394L); V394L fibroblasts, 5 days, various concentration): superior; Inhibition of GCase (in words) (Recombinant GCase): non-inhibitory; AC50 (Recombinant GCase; recombinant GCase incubated with compound at various concentration, read-out: AC50, activation effect on GCase): 10.1 µM; Inhibition of GCase (in words) (Recombinant GCase; listed as compound 216): did not inhibit
